Reference: patent US12286437B2, “Cardiac sarcomere inhibitors” (Cytokinetics, Inc., priority 2021, dated 2025)

Assays:
[1] = tested on: bovine cardiac myofibrils; test: Myofibril assay (ATPase activity of skinned bovine cardiac myofibrils, PK/LDH-coupled); type: biochemical; details: inhibition of steady-state ATPase of bovine cardiac myofibrils; CaCl2 for 50% or 75% activation
Procedure: To evaluate the effect of compounds on the ATPase activity of full-length cardiac myosin in the context of the native sarcomere, skinned myofibril assays were performed. Bovine cardiac myofibrils were obtained by homogenizing bovine cardiac left ventricular tissue in the presence of a detergent such as triton X-100. Such treatment removes membranes and a majority of the soluble cytoplasmic proteins but leaves intact the cardiac sarcomeric acto-myosin apparatus. Myofibril preparations retain the ability to hydrolyze ATP in a Ca^2+ regulated manner. ATPase activities of such myofibril preparations in the presence and absence of compounds were assayed at Ca^2+ concentrations activating to a defined fraction of the maximal rate (i.e., […], 75%). Small molecule agents were assessed for their ability to inhibit the steady-state ATPase activity of bovine cardiac myofibrils using pyruvate kinase and lactate dehydrogenase (PK/LDH)-coupled enzyme system. This assay regenerates myosin-produced ADP into ATP by oxidizing NADH, producing an absorbance change at 340 nm. Prior to testing small molecule agents, the bovine cardiac myofibrils were assessed for their calcium responsiveness and the calcium concentration that achieves either a 50% (pCa50) or 75% (pCa75) activation of the myofibril system was chosen as the final condition for assessing the inhibitory activity of the small molecule agents. All enzymatic activity was measured in a buffered solution containing 12 mM PIPES (piperazine-N,N′-bis(2-ethanesulfonic acid), 2 mM magnesium chloride at pH 6.8 (PM 12 buffer). Final assay conditions were 1 mg/mL of bovine cardiac myofibrils, 4 U/mL pyruvate kinase, 6 U/mL lactate dehydrogenase, 50 μM ATP, 0.1 mg/mL BSA (bovine serum albumin), 10 ppm antifoam, 1 mM DTT, 0.5 mM NADH, 1.5 mM PEP, 0.6 mM EGTA, and an amount of CaCl2 sufficient to achieve either 50% or 75% activation of the myofibril ATPase activity. Results for compounds tested are provided in Table A. Compounds tested were prepared in accordance with the synthetic procedures described herein.

[2] = Dog single dose pharmacokinetics; type: in vivo, beagle dogs; details: male, beagle, plasma, IV, read-out: t½ (converted)
Procedure: Non-naïve male beagle dogs (8 months-3 years of age, body weight 8-13 kg) were used in this study. All animals for IV administration had free access to food and water; all animals for PO were fasted overnight prior to dosing and were fed approximately 6 hours after dosing. For the animals in PO group, pentagastrin (6.0 μg/kg, i.m.) was administrated 20 minutes before dosing PO formulation and 1.5 hours after the first pentagastrin dosing. The dosing volume was 0.024 mL/kg, the concentration was 250 μg/mL in DMSO/1 N NaOH/PBS. 10 mL of 0.001 N HCl was used to wash the gavage catheter for each animal. The IV dose solution was prepared in 10% DMA/50% PG/40% HPβCD solution (40% w/v aqueous HPβCD) at a concentration of 1.0 mg/mL. The oral dose suspension was prepared by suspending the compound in 0.5% HPMC/0.1% Tween 80 in distilled water at a concentration of 0.2 mg/mL. Concentrations of IV and PO doses were measured at the end of the study. PK parameters were calculated using the nominal dose values if the measured values were within 20% of the nominal values. Blood samples were collected by venipuncture of peripheral veins except the dosing vein at pre-dose, 5 15, 30 min, 1, 2, 4, 6, 8, 24 and 48 h post-dose. Blood samples were centrifuged and resultant plasma was frozen for bioanalysis. Plasma samples were stored at −80° C. before analysis. Plasma samples were analyzed for compound concentrations using the LC/MS/MS method. Briefly, a 50 μL aliquot of each plasma sample was mixed with 100 μL of acetonitrile that contained an internal standard. The mixture was vortexed and centrifuged. Ten (10) μL of the resulting solution was injected onto a reverse-phase C18 column and the resultant peaks detected on a LC/MS/MS equipped with a turbo ionspray ionization source. Sample concentrations below the limit of quantification (BLQ) were treated as zero for PK calculations. PK parameters were estimated from individual animals using noncompartmental analysis of the concentration-time data (Phoenix WinNonLin software, version 64; Pharsight, Mountain View, CA). The elimination rate constant (k) was calculated as the absolute value of the slope of the linear regression of logarithm (log) of the concentration versus time for the last three data points of the concentration-time profiles. Apparent elimination half-life (t1/2) values were calculated as ln(2)/k. Area under the concentration-time curve (AUC) values were estimated using linear trapezoidal method. AUCt values were calculated from the dosing time to the last measurable concentration. AUC∞ values were calculated as the sum of the corresponding AUCt and the ratio of the last detectable concentration divided by k. Plasma clearance (CL) was calculated from Dose/AUC∞. Mean resident time extrapolated to infinity (MRT∞) was estimated by moment analysis. Vss was calculated from MRT∞×CL. Maximum concentration (Cmax) and time to reach Cmax (tmax) were recorded as observed. As this was a cross-over study, bioavailability was calculated dAUC∞,po/dAUC∞,iv×100% where dAUC was the dose normalized AUC value from the same animal given IV and PO dose. Data for compounds tested are provided in Table D. Compounds tested were prepared in accordance with the synthetic procedures described herein.

[3] = Projected single-dose CL and Vss values in humans (allometric scaling of mouse, rat, dog, monkey IV PK); details: human, projected by allometric scaling from single-dose IV PK
Procedure: Allometric scaling for the prediction of human Clearance and Volume of Distribution was based on interspecies simple allometric scaling of mouse, rat, dog, and cynomolgus monkey intravenous pharmacokinetic parameters (Boxenbaum, J Pharmacokinet Biopharm 10:201-27, 1982). Prediction of human CL was performed by extrapolating pre-clinical species' plasma intravenous clearance. The ‘rule of exponents’ (Mahmood & Balian, Life Sci 59:579-85, 1996) was examined in this prediction, where it has been proposed that, when the exponent of simple allometry lies between […] and 0.99, a correction factor based on Maximum Life Span (MLP) of this species can be applied and, when the exponent of simple allometry is greater than 1.0, a correction factor based on Brain Weight (BrW) can be applied, or a protein binding correction can be applied when available. In a similar manner, simple allometric scaling was employed to predict human Volume of Distribution. This method has been used successfully for varied drugs (Ward & Smith, Drug Metab Dispos 32:612-19, 2004; McGinnity et al., Curr Drug Metab 8:463-79, 2007).

[4] = target: T1, CYP3A4 (Homo sapiens, UniProt P08684); test: Time-dependent inhibition of CYP3A4 in human liver microsomes (testosterone and midazolam probes); type: in vitro ADME; details: for (% Activity NADPH T0)/(% Activity NADPH T30): fold change
T1 construct: Pooled human microsomes and selective CYP probe substrates were used; from tissue; host or cells: pooled human liver microsomes
Procedure: An assessment of the time-dependent Inhibitory Potential of the test compounds against Principal Human Cytochrome P450 Isozymes using Human Liver Microsomes was also carried out using standard methods (Grimm et al, Drug Metab. Dispos., July; 37(7):1355-70. doi: 10.1124/dmd.109.026716, 2009). Pooled human microsomes and selective CYP probe substrates were used for in vitro assessment of test compounds at 25 and 50 μM as time-dependent inhibitors of […] human hepatic cytochrome P450 isozymes (CYP1A2, 2B6, 2C9, 2C19, 2D6, and 3A4). LC-MS/MS was used to quantify metabolite formation. The inhibition of each P450 enzyme in human liver microsomes was measured as the percentage decrease in the activity of marker metabolite formation as measured by LC-MS/MS compared to non-inhibited controls (=100% activity) at time zero and after 30 minutes incubation. The occurrence of any time dependent inhibition was then expressed as the fold change in enzyme activity at time zero relative to the activity after 30 minutes incubation.

T1 sequence (P08684 whole entry): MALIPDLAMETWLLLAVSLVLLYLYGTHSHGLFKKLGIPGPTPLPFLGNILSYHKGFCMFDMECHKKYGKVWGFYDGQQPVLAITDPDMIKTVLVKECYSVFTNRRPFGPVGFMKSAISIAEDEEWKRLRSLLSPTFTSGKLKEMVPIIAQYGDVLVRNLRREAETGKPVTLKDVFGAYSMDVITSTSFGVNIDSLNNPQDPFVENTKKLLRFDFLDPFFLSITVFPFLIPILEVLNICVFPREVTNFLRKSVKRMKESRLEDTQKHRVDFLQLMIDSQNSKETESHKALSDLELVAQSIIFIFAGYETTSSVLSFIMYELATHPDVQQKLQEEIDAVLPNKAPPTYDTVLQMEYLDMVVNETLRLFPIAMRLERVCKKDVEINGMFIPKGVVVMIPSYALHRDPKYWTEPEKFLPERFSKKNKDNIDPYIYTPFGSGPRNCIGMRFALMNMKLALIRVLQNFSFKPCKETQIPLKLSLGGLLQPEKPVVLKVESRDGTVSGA

CDMF IC15 [1] [µM] | half-life [2] [min] | Projected CL [3] [mL/min/kg] | Projected Vss [3] [L/kg] | Projected t½ [3] [h] | (% Activity NADPH T0)/(% Activity NADPH T30) ([4]; CYP3A4-M (midazolam probe substrate), 25 μM) | (% Activity NADPH T0)/(% Activity NADPH T30) ([4]; CYP3A4-M (midazolam probe substrate), 50 μM) | (% Activity NADPH T0)/(% Activity NADPH T30) ([4]; CYP3A4-T (testosterone probe substrate), 25 μM) | (% Activity NADPH T0)/(% Activity NADPH T30) ([4]; CYP3A4-T (testosterone probe substrate), 50 μM) | change in fold activity of 3A4 (time dependent inhibition) ([4]; both midazolam and testosterone probes, 25 and 50 μM) [fold] | Compound
1.1 | 880 | 3.9 | 13.9 | 41 | 1.6 | 1.7 | 1.8 | 1.8 | > 1.5 | O=C1[C@H](C2COC2)N(Cc2ccc(C(F)(F)F)cc2)C(=O)CN1c1ncc(Cl)cc1F [Comparator C, (S)-1-(5-chloro-3-fluoropyridin-2-yl)-3-(oxetan-3-yl)-4-(4-(trifluoromethyl)benzyl)piperazine-2,5-dione, reference compound]
1.3 | 1990 | 1.2 | 5.5 | 51.7 | – | – | – | – | – | O=CN1CC2(C1)C(=O)N([C@H]1CC[C@H](C(F)F)CC1)CC(=O)N2Cc1ccc(C(F)(F)F)cc1 [Comparator E, 8-((1r,4r)-4-(difluoromethyl)cyclohexyl)-6,9-dioxo-5-(4-(trifluoromethyl)benzyl)-2,5,8-triazaspiro[3.5]nonane-2-carbaldehyde]
